Where two headings read alike, the source gives them in different places.

In assay [1] the target is T1, bradykinin 1 receptor (B1R) of the rat (Rattus norvegicus, UniProt P97583).
T1 construct: expressed in transfected cells; host or cells: CHO K1 cells
T1 sequence (P97583 1-337): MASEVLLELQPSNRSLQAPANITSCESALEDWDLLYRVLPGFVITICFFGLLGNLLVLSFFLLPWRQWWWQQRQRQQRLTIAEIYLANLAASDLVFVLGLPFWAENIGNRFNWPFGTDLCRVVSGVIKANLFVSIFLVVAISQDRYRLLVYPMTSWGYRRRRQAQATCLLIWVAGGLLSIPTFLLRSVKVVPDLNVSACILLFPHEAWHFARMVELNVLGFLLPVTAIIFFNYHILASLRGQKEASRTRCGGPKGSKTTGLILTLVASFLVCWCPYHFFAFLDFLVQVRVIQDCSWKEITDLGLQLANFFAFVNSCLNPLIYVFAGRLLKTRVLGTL
Briefly: Functional investigation on the rat bradykinin 1 receptor (B1R), Ca2+ FLIPR assay in CHO K1 rB1R cells. The assay is classed as cell-based. Conditions: CHO-K1, B1R antagonism rat, test substance 10 μM, read-out: B1R Ant. r [10 μM] % Inhibition. The method in brief:
(§1)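 Stably transfected CHO K1 cells loaded with Fluo-4; FLIPR Ca2+ fluorescence peak (ex 488/em 540 nm). Compound added first (agonism vs Lys-Des-Arg9-bradykinin ≥50 nM human, Des-Arg9-bradykinin 10 μM rat), then after 10-20 min agonist at EC80; antagonism as % inhibition, IC50 from concentration series, n=2-3, N≥2.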

Assay [2] addresses T2, human μ opiate receptor (Homo sapiens, UniProt P35372).
T2 construct: purchased PerkinElmer Life Sciences, Zaventem, Belgium RB-HOM; host or cells: CHO-K1 cells (membrane preparation)
Briefly: Affinity for the human μ opiate receptor ([3H]-naloxone displacement, CHO-K1 receptor membrane preparation, SPA). As to conditions: 1.5 h, test concentration 1 μM. It counts as binding. The method in brief: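 Readout is percent displacement of [3H]-naloxone (1 nmol/l) from human μ receptor in CHO-K1 membranes, measured at 1 μmol/l compound. Incubation runs 90 minutes at room temperature with WGA-SPA beads in Tris-HCl/BSA buffer; non-specific binding is defined with 100 μmol/l naloxone.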

Assay [3] concerns the target T3, human bradykinin 1 receptor (B1R) (Homo sapiens, UniProt P46663).
T3 construct: expressed in transfected cells; host or cells: CHO K1 cells
T3 sequence (P46663 1-353): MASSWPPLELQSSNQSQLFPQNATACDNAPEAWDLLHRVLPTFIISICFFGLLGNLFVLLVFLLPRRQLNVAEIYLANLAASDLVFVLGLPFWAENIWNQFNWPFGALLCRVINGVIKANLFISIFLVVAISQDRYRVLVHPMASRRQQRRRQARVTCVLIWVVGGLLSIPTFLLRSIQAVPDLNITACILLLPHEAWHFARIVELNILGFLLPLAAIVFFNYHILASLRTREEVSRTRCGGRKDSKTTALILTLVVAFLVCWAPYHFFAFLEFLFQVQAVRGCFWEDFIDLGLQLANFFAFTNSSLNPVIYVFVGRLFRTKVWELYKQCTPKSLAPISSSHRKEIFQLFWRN
Briefly: Functional investigation on the human bradykinin 1 receptor (B1R), Ca2+ FLIPR assay in CHO K1 hB1R cells. The assay is classed as cell-based. As to conditions: test substance 10 μM; for inhibition at 10 µM: CHO-K1, B1R antagonism human, read-out: B1R Ant. h [10 μM] % Inhibition. The method in brief: as §1

Where [4] appears, read: Table 3, to be read in the same way as Table 1, read-out: μ.
Where [5] appears, read: % inhibition compared with the maximum achievable inhibition.

T2 sequence (P35372 whole entry): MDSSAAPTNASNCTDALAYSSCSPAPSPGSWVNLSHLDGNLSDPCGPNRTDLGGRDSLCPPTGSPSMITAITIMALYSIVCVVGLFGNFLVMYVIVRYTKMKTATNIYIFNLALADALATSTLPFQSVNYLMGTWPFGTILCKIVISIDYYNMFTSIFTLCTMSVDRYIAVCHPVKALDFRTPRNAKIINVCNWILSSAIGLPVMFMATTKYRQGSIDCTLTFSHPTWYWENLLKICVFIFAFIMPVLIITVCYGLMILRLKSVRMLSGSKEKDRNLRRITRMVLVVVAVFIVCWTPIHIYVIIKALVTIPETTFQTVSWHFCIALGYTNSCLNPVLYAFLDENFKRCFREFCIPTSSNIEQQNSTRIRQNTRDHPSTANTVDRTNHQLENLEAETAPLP

As for `CN(CCOCC(=O)NCC1CCC(C(CCc2ccccc2)N2CCCC2)CC1)S(=O)(=O)c1c(Cl)cc(Cl)cc1Cl` (stereo not drawn) [Example 640, N-((4-(3-phenyl-1-(pyrrolidin-1-yl)propyl)cyclohexyl)methyl)-2-(2-(2,4,6-trichloro-N-methylphenylsulfonamido)ethoxy)acetamide], the inhibition at 10 µM was 63% in assay [1] (Ca2+ FLIPR, CHO K1 rB1R cells) and 101% in assay [3] (Ca2+ FLIPR, CHO K1 hB1R cells). Besides, the inhibition at 1 µM in assay [2] (setting [4]) was 27%.
As for `COc1cc(C)c(S(=O)(=O)N(C)CCOCC(=O)NCC2CCC(C(c3ccccc3)N(C)C)CC2)c(C)c1C` (stereo not drawn) [Example 623, N-[4-(dimethylaminophenylmethyl)-cyclohexylmethyl]-2-{2-[(4-methoxy-2,3,6-trimethylbenzenesulfonyl)-methylamino]-ethoxy}-acetamide], the inhibition at 10 µM in assay [1] (Ca2+ FLIPR, CHO K1 rB1R cells) was 41%. In addition, the inhibition at 1 µM in assay [2] (Table 2, read-out: μ receptor) stood at 93%. Further, the “B1R Ant. h [10 μM] % Inhibition” value in assay [3] (B1R antagonism human, Ca2+ FLIPR, CHO K1 hB1R cells) came out at 84%.
Regarding `CN1CCN(C(c2ccccc2)C2CCC(NC(=O)COCC3CCCCN3S(=O)(=O)c3c(Cl)cc(Cl)cc3Cl)CC2)CC1` (stereo not drawn) [Example 739, N-(4-((4-methylpiperazin-1-yl)(phenyl)methyl)cyclohexyl)-2-((1-(2,4,6-trichlorophenylsulfonyl)piperidin-2-yl)methoxy)acetamide], the inhibition at 10 µM amounted to 87% in assay [1] (Ca2+ FLIPR, CHO K1 rB1R cells) and 104% in assay [3] (Ca2+ FLIPR, CHO K1 hB1R cells). The inhibition at 1 µM in assay [2] (setting [4]) was 62%.
Turning to `CN(C)C(c1ccccc1)C1CCC(NC(=O)CCOCN(C)S(=O)(=O)c2c(Cl)cc(Cl)cc2Cl)CC1` (stereo not drawn) [Example 620, N-[4-(dimethylaminophenylmethyl)-cyclohexyl]-3-{[methyl-(2,4,6-trichlorobenzenesulfonyl)-amino]-methoxy}-propionamide], the inhibition at 10 µM was found to be 73% in assay [1] (Ca2+ FLIPR, CHO K1 rB1R cells) and 103% in assay [3] (Ca2+ FLIPR, CHO K1 hB1R cells). Also, the inhibition at 1 µM in assay [2] (Table 2, read-out: μ receptor) came to 92%.
Regarding `COc1cc(C)c(S(=O)(=O)N2CCCC(OCC(=O)NC3CCC(C(CCc4ccccc4)N4CCOCC4)CC3)C2)c(C)c1` (stereo not drawn) [Example 674, 2-(1-(4-methoxy-2,6-dimethylphenylsulfonyl)piperidin-3-yloxy)-N-(4-(1-morpholino-3-phenylpropyl)cyclohexyl)acetamide], the inhibition at 10 µM turned out to be 45% in assay [1] (Ca2+ FLIPR, CHO K1 rB1R cells) and 61% in assay [3] (Ca2+ FLIPR, CHO K1 hB1R cells). In assay [2] (setting [4]), the inhibition at 1 µM was 7%.
The corresponding values for `COc1cc(C)c(S(=O)(=O)N2CCCC2COCC(=O)NCC2CCC(C(CCc3ccccc3)N3CCCC3)CC2)c(C)c1` (stereo not drawn) [Example 750, 2-((1-(4-methoxy-2,6-dimethylphenylsulfonyl)pyrrolidin-2-yl)methoxy)-N-((4-(3-phenyl-1-(pyrrolidin-1-yl)propyl)cyclohexyl)methyl)acetamide] are 94%, 101% and 52%.
As to `CN1CCN(C(c2cccc(F)c2)C2CCN(C(=O)COCC3CCc4ccccc4N3S(=O)(=O)c3ccc(Cl)c(Cl)c3)CC2)CC1` (stereo not drawn) [Example 809, 2-((1-(3,4-dichlorophenylsulfonyl)-1,2,3,4-tetrahydroquinolin-2-yl)methoxy)-1-(4-((3-fluorophenyl)(4-methylpiperazin-1-yl)methyl)piperidin-1-yl)ethanone], the inhibition at 10 µM in assay [1] (setting [5]) was determined as 87%; in assay [3] (setting [5]) it was 109%. In assay [2] (setting [4]), the inhibition at 1 µM stood at 6%.
Turning to `CN(CCOCC(=O)NC1CCC(C(CCc2ccccc2)N2CCCCC2)CC1)S(=O)(=O)c1c(Cl)cc(C(F)(F)F)cc1Cl` (stereo not drawn) [Example 671, 2-(2-(2,6-dichloro-N-methyl-4-(trifluoromethyl)phenylsulfonamido)ethoxy)-N-(4-(3-phenyl-1-(piperidin-1-yl)propyl)cyclohexyl)acetamide], the inhibition at 10 µM in assay [1] (Ca2+ FLIPR, CHO K1 rB1R cells) amounted to 4%; in assay [3] (Ca2+ FLIPR, CHO K1 hB1R cells), 43%. Further, the inhibition at 1 µM in assay [2] (setting [4]) stood at 9%.
Regarding `CN(CCOCC(=O)NCC1CCC(C(CCc2ccccc2)N2CCOCC2)CC1)S(=O)(=O)c1c(Cl)cc(Cl)cc1Cl` (stereo not drawn) [Example 715, N-((4-(1-morpholino-3-phenylpropyl)cyclohexyl)methyl)-2-(2-(2,4,6-trichloro-N-methylphenylsulfonamido)ethoxy)acetamide], the inhibition at 10 µM in assay [1] (Ca2+ FLIPR, CHO K1 rB1R cells) is 24%; in assay [3] (Ca2+ FLIPR, CHO K1 hB1R cells), 55%. Besides, the inhibition at 1 µM in assay [2] (setting [4]) was 10%.
For `COc1cc(C)c(S(=O)(=O)N2CCCC(COCC(=O)NC3CCC(C(CCc4ccccc4)N4CCOCC4)CC3)C2)c(C)c1` (stereo not drawn) [Example 678, 2-((1-(4-methoxy-2,6-dimethylphenylsulfonyl)piperidin-3-yl)methoxy)-N-(4-(1-morpholino-3-phenylpropyl)cyclohexyl)acetamide], the inhibition at 10 µM in assay [1] (Ca2+ FLIPR, CHO K1 rB1R cells) came out at 73%; in assay [3] (Ca2+ FLIPR, CHO K1 hB1R cells) it was 45%. Also, the inhibition at 1 µM in assay [2] (setting [4]) was found to be 6%.
Regarding `CN(C)C(c1ccccc1)C1CCC(CNC(=O)CCOCN(C)S(=O)(=O)c2c(Cl)cc(Cl)cc2Cl)CC1` (stereo not drawn) [Example 624, N-[4-(dimethylaminophenylmethyl)-cyclohexylmethyl]-3-{[methyl-(2,4,6-trichlorobenzenesulfonyl)-amino]-methoxy}-propionamide], the inhibition at 10 µM in assay [1] (Ca2+ FLIPR, CHO K1 rB1R cells) worked out at 81%; in assay [3] (Ca2+ FLIPR, CHO K1 hB1R cells), 104%. Besides, the inhibition at 1 µM in assay [2] (Table 2, read-out: μ receptor) came to 98%.
On to `O=C(COCC1CCCN(S(=O)(=O)c2c(Cl)cc(Cl)cc2Cl)C1)NC1CCC(C(CCc2ccccc2)N2CCCCC2)CC1` (stereo not drawn) [Example 679, N-(4-(3-phenyl-1-(piperidin-1-yl)propyl)cyclohexyl)-2-((1-(2,4,6-trichlorophenylsulfonyl)piperidin-3-yl)methoxy)acetamide], for which the inhibition at 10 µM was 34% in assay [1] (Ca2+ FLIPR, CHO K1 rB1R cells) and 39% in assay [3] (Ca2+ FLIPR, CHO K1 hB1R cells). The inhibition at 1 µM in assay [2] (setting [4]) worked out at 51%.
For the compound `O=C(COC1CCN(S(=O)(=O)c2c(Cl)cc(Cl)cc2Cl)C1)NC1CCC(C(CCc2ccccc2)N2CCOCC2)CC1` (stereo not drawn) [Example 666, N-(4-(1-morpholino-3-phenylpropyl)cyclohexyl)-2-(1-(2,4,6-trichlorophenylsulfonyl)pyrrolidin-3-yloxy)acetamide], the inhibition at 10 µM in assay [1] (Ca2+ FLIPR, CHO K1 rB1R cells) is 5%; in assay [3] (Ca2+ FLIPR, CHO K1 hB1R cells) it was 11%. Also, the inhibition at 1 µM in assay [2] (setting [4]) was determined as 6%.
The corresponding values for `O=C(COCC1CCCN1S(=O)(=O)c1c(Cl)cc(Cl)cc1Cl)NC1CCC(C(CCc2ccccc2)N2CCCCC2)CC1` (stereo not drawn) [Example 697, N-(4-(3-phenyl-1-(piperidin-1-yl)propyl)cyclohexyl)-2-((1-(2,4,6-trichlorophenylsulfonyl)pyrrolidin-2-yl)methoxy)acetamide] are 97%, 71% and 76%.
In the case of `O=C(COC1CCCN(S(=O)(=O)c2c(Cl)cc(Cl)cc2Cl)C1)NC1CCC(C(c2ccccc2)N2CCCC2)CC1` (stereo not drawn) [Example 631, N-(4-(phenyl(pyrrolidin-1-yl)methyl)cyclohexyl)-2-(1-(2,4,6-trichlorophenylsulfonyl)piperidin-3-yloxy)acetamide], the inhibition at 10 µM in assay [1] (Ca2+ FLIPR, CHO K1 rB1R cells) is 87%; in assay [3] (Ca2+ FLIPR, CHO K1 hB1R cells) it was 92%. The inhibition at 1 µM in assay [2] (setting [4]) came to 88%.
The corresponding values for `O=C(COC1CCN(S(=O)(=O)c2c(Cl)cc(Cl)cc2Cl)C1)NCC1CCC(C(c2ccccc2)N2CCCC2)CC1` (stereo not drawn) [Example 644, N-((4-(phenyl(pyrrolidin-1-yl)methyl)cyclohexyl)methyl)-2-(1-(2,4,6-trichlorophenylsulfonyl)pyrrolidin-3-yloxy)acetamide] are 52%, 73% and 59%.
As to `COc1cc(C)c(S(=O)(=O)N2CCC(OCC(=O)NC3CCC(C(c4ccccc4)N4CCN(C)CC4)CC3)C2)c(C)c1` (stereo not drawn) [Example 688, 2-(1-(4-methoxy-2,6-dimethylphenylsulfonyl)pyrrolidin-3-yloxy)-N-(4-((4-methylpiperazin-1-yl)(phenyl)methyl)cyclohexyl)acetamide], the inhibition at 10 µM stood at 94% in assay [1] (Ca2+ FLIPR, CHO K1 rB1R cells) and 103% in assay [3] (Ca2+ FLIPR, CHO K1 hB1R cells). Further, in assay [2] (setting [4]), the inhibition at 1 µM was found to be 20%.

For the origin of these results see patent publication US8106055B2, “Substituted amide compounds” (Gruenenthal GmbH, priority 2007, dated 2012).
